{"source": "patent US8796302B2", "about": "(priority 2004, dated 2014)", "system": "TNFα", "test": "TNFα production in neuron-glia cultures of PHOX+/+ and PHOX−/− mice", "assay_type": "cell-based, mouse", "conditions": "DM 10^−14 M", "protocol": "Neurotoxicity was assessed by DA uptake as described in Example 1. TNFα production was measured by ELISA and iROS was determined by DCFDA as in Example 5. Results are expressed as a percentage of the control culture in FIG. 7A, pg/ml in FIG. 7B, and difference from control in FIG. 7C, respectively, and are the mean±S.E.M. of five individual experiments with triplicates in each experiment. *, P<0.05 compared with LPS culture.\nThe rat and mouse ventral mesencephalic neuron-glia cultures were prepared as in Example 1. […] DA neurotoxicity was measured by using the [^3H] DA uptake assay as in Example 1. The data are expressed as the percent of the control cultures and are the mean±SEM. The release of TNFα was measured with a commercially available enzyme-linked immunosorbent assay kit. *P<0.05, **P<0.01, compared to control. The amount of TNFα was measured as in Example 2.", "data": [{"smiles": "COc1ccc2c(c1)[C@@]13CCCC[C@H]1[C@@H](C2)N(C)CC3", "note": "[DM, d-3-methoxy-N-methylmorphinan]", "values": [{"measurement": "LPS-induced TNFα production", "setting": "PHOX+/+ mice", "result": "significantly reduce TNFα production"}, {"measurement": "LPS-induced TNFα production", "setting": "PHOX−/− mice", "result": "not seen"}]}]}
